Source: ChEMBL document CHEMBL1201862, “PubChem BioAssay data set” (2004)
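Grown in 96-well plates, cells were treated for 48 hours with each compound at five concentrations. Insufficient inhibition: endpoint recorded as highest concentration tested. At the GI50, growth is halved.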 Active and inactive are the calls of the source. No stated cut-off is given here; in the data, active = GI50 up to about 1.1 µM and inactive = higher.

Key:
Assay in all cases: inhibition of tumour cell growth, NCI panel, 48 h
[1] = system: RXF 393
[2] = system: CCRF-CEM
[3] = system: 786-0
[4] = system: HOP-18
[5] = system: A498
[6] = system: A549
[7] = system: EKVX
[8] = system: OVCAR-5
[9] = system: SF-539
[10] = system: RPMI-8226
[11] = system: UO-31
[12] = system: U-251
[13] = system: SK-MEL-5
[14] = system: HL-60
[15] = system: HCT-15
[16] = system: HCC 2998
[17] = system: NCI-H23
[18] = system: M14
[19] = system: SF-295
[20] = system: NCI-H522
[21] = system: SNB-75
[22] = system: DMS-273
[23] = system: KM-20L2
[24] = system: HOP-62
[25] = system: TK-10
[26] = system: KM12
[27] = system: SW-620
[28] = system: NCI-H226
[29] = system: SNB-19
[30] = system: M19-MEL
[31] = system: OVCAR-3
[32] = system: LXFL 529
[33] = system: CAKI-1
[34] = system: SF-268
[35] = system: SNB-78
[36] = system: RXF 631
[37] = system: HOP-92
[38] = system: IGROV-1
[39] = system: MOLT-4
[40] = system: SR
[41] = system: SK-MEL-28
[42] = system: XF498
[43] = system: OVCAR-4
[44] = system: K562
[45] = system: HT-29
[46] = system: HCT-116
[47] = system: NCI-H460
[48] = system: SN12C
[49] = system: SK-OV-3
[50] = system: UACC-62
[51] = system: Malme-3M
[52] = system: COLO 205
[53] = system: SK-MEL-2
[54] = system: OVCAR-8
[55] = system: UACC-257
[56] = system: DLD-1
[57] = system: ACHN
[58] = system: LOX IMVI
[59] = system: DMS-114

Measured: GI50

CCc1cc(CCC(=O)Nc2c(C)cccc2C)n[nH]1
inactive: [1] > 100 µM | [2] > 100 µM | [3] > 100 µM | [4] > 100 µM | [5] > 100 µM | [6] > 100 µM | [7] > 100 µM | [8] > 100 µM | [9] > 100 µM | [10] > 100 µM | [11] > 100 µM | [12] > 100 µM | [13] > 100 µM | [14] > 100 µM | [16] > 100 µM | [17] > 100 µM | [18] > 100 µM | [19] > 100 µM | [20] > 100 µM | [21] > 100 µM | [22] > 100 µM | [23] > 100 µM | [24] > 100 µM | [25] > 100 µM | [26] > 100 µM | [27] > 100 µM | [28] > 100 µM | [29] > 100 µM | [30] > 100 µM | [31] > 100 µM | [32] > 100 µM | [33] > 100 µM | [34] > 100 µM | [35] > 100 µM | [36] > 100 µM | [37] > 100 µM | [38] > 100 µM | [39] > 100 µM | [40] > 100 µM | [41] > 100 µM | [42] > 100 µM | [43] > 100 µM | [44] > 100 µM | [45] > 100 µM | [46] > 100 µM | [47] > 100 µM | [48] > 100 µM | [49] > 100 µM | [50] > 100 µM | [51] > 100 µM | [52] > 100 µM | [53] > 100 µM | [54] > 100 µM | [55] > 100 µM | [56] > 100 µM | [57] > 100 µM
> 100 µM: [15]

Cc1ccc(-c2nc3c(C(=O)NCCN(C)C)cccc3[nH]2)cc1
13.9 µM: [15]
inactive: [1] 10.7 µM | [2] 11.5 µM | [3] 24.4 µM | [4] 15.3 µM | [5] 13 µM | [6] 11.2 µM | [7] 24.4 µM | [8] 20.9 µM | [9] 9.12 µM | [11] 9.79 µM | [12] 18.3 µM | [58] 11.1 µM | [13] 13.7 µM | [14] 14.2 µM | [16] 14.3 µM | [17] 15 µM | [18] 15.8 µM | [19] 16.7 µM | [21] 18 µM | [22] 9.06 µM | [24] 15.9 µM | [25] 17.7 µM | [26] 20 µM | [27] 6.27 µM | [28] 11.9 µM | [29] 26.1 µM | [30] 16.2 µM | [31] 21.5 µM | [33] 23.5 µM | [34] 18.5 µM | [35] 20.2 µM | [36] 4.89 µM | [37] 13.1 µM | [38] 15.9 µM | [39] 3.51 µM | [41] 18.4 µM | [43] 22.9 µM | [44] 13.7 µM | [45] 15.5 µM | [46] 5.06 µM | [59] 13.3 µM | [47] 4.89 µM | [48] 11.5 µM | [49] 14.5 µM | [50] 18.1 µM | [52] 8 µM | [53] 18.5 µM | [54] 15.2 µM | [55] 14 µM | [56] 13.5 µM | [57] 10.3 µM

CC(=O)Oc1c(C)c(-c2ccccc2)c(C)c(-c2ccccc2)c1C(=S)c1ccccc1
> 100 µM: [15]
inactive: [1] > 100 µM | [2] > 100 µM | [3] > 100 µM | [4] > 100 µM | [5] > 100 µM | [6] > 100 µM | [7] > 100 µM | [8] > 100 µM | [9] > 100 µM | [10] 70.8 µM | [11] > 100 µM | [12] > 100 µM | [58] > 100 µM | [13] > 100 µM | [14] 35.7 µM | [16] > 100 µM | [17] > 100 µM | [18] > 100 µM | [19] > 100 µM | [20] > 100 µM | [21] > 100 µM | [23] 67.3 µM | [24] > 100 µM | [25] > 100 µM | [26] > 100 µM | [28] > 100 µM | [29] > 100 µM | [30] > 100 µM | [31] > 100 µM | [32] > 100 µM | [34] > 100 µM | [35] > 100 µM | [36] > 100 µM | [37] > 100 µM | [38] > 100 µM | [39] 93.3 µM | [40] 41.9 µM | [41] > 100 µM | [44] > 100 µM | [45] > 100 µM | [46] > 100 µM | [47] > 100 µM | [48] > 100 µM | [49] > 100 µM | [50] > 100 µM | [51] > 100 µM | [52] > 100 µM | [53] > 100 µM | [54] > 100 µM | [55] > 100 µM | [56] > 100 µM | [57] > 100 µM

COc1cccc2c1C(=O)c1c(O)c3c(c(O)c1C2=O)C[C@@](O)(C(=O)CO)CC3OC1CC(NCCCCC(OC(C)=O)OC(C)=O)C(O)C(C)O1 (stereo partly drawn)
0.00246 µM: [15]
active: [1] 0.00193 µM | [2] 0.00227 µM | [3] 0.00298 µM | [4] 0.0033 µM | [5] 0.00365 µM | [6] 0.00243 µM | [8] 0.0047 µM | [9] 0.00212 µM | [10] 0.00261 µM | [11] 0.00192 µM | [12] 0.00173 µM | [58] 0.00179 µM | [14] 0.00202 µM | [16] 0.00223 µM | [18] 0.00169 µM | [19] 0.0034 µM | [20] 0.0015 µM | [21] 0.00137 µM | [23] 0.00242 µM | [24] 0.0021 µM | [25] 0.00322 µM | [26] 0.0024 µM | [27] 0.00259 µM | [28] 0.00227 µM | [29] 0.00329 µM | [30] 0.00345 µM | [31] 0.00349 µM | [32] 0.00214 µM | [33] 0.00251 µM | [34] 0.00313 µM | [35] 0.00209 µM | [36] 0.00137 µM | [37] 0.0032 µM | [38] 0.0046 µM | [39] 0.00235 µM | [40] 0.000337 µM | [41] 0.00335 µM | [43] 0.00157 µM | [44] 0.00197 µM | [45] 0.00312 µM | [59] 0.00402 µM | [47] 0.00115 µM | [48] 0.00348 µM | [49] 0.003 µM | [50] 0.00182 µM | [51] 0.0048 µM | [53] 0.00212 µM | [54] 0.00305 µM | [55] 0.00468 µM | [56] 0.00342 µM | [57] 0.00243 µM

Cc1nc(-c2ccccc2)cc2c1c(=O)oc1ccccc12
inactive: [1] > 100 µM | [2] > 100 µM | [3] > 100 µM | [4] > 100 µM | [6] > 100 µM | [7] > 100 µM | [8] > 100 µM | [9] > 100 µM | [10] > 100 µM | [11] > 100 µM | [12] > 100 µM | [13] > 100 µM | [14] > 100 µM | [16] > 100 µM | [17] > 100 µM | [18] > 100 µM | [19] > 100 µM | [20] > 100 µM | [21] 83.4 µM | [22] > 100 µM | [23] > 100 µM | [24] > 100 µM | [26] > 100 µM | [27] > 100 µM | [28] > 100 µM | [29] > 100 µM | [31] > 100 µM | [32] > 100 µM | [33] > 100 µM | [34] > 100 µM | [35] > 100 µM | [36] > 100 µM | [37] > 100 µM | [38] > 100 µM | [39] > 100 µM | [40] > 100 µM | [41] > 100 µM | [43] > 100 µM | [44] > 100 µM | [45] > 100 µM | [46] > 100 µM | [59] > 100 µM | [47] > 100 µM | [48] > 100 µM | [49] > 100 µM | [50] 46.8 µM | [51] > 100 µM | [52] > 100 µM | [53] > 100 µM | [54] > 100 µM | [55] > 100 µM | [56] > 100 µM | [57] > 100 µM
> 100 µM: [15]
